Laboratory results taken from ChEMBL document CHEMBL5058649, “Data for DCP probe BAY 1816032” (2022).

Columns and labels:
[1] = molecular target: BDNF/NT-3 growth factors receptor (Homo sapiens) (UniProt Q16620); test: TRKB DiscoveRx kinase panel; conditions: Compound concentration 1.0 uM
[2] = molecular target: Receptor-interacting serine/threonine-protein kinase 4 (Homo sapiens) (UniProt P57078); test: RIPK4 DiscoveRx kinase panel; conditions: Compound concentration 1.0 uM
[3] = molecular target: Alpha-2C adrenergic receptor (Homo sapiens, UniProt P18825); test: GPCRScan assay: inhibition of Alpha2C; set-up: radioligand conc. used [nm] 0.5 – 1.0, parental cells stable MDCK
[4] = molecular target: Mitogen-activated protein kinase kinase kinase kinase 5 (Homo sapiens) (UniProt Q9Y4K4); test: MAP4K5 DiscoveRx kinase panel; conditions: Compound concentration 1.0 uM
[5] = molecular target: Tyrosine-protein kinase Yes (Homo sapiens) (UniProt P07947); test: YES DiscoveRx kinase panel; conditions: Compound concentration 1.0 uM
[6] = molecular target: Megakaryocyte-associated tyrosine-protein kinase (Homo sapiens) (UniProt P42679); test: CTK DiscoveRx kinase panel; conditions: Compound concentration 1.0 uM
[7] = molecular target: Beta-1 adrenergic receptor (Homo sapiens) (UniProt P08588); conditions: Compound concentration 10.0 uM
[8] = molecular target: Ephrin type-A receptor 1 (Homo sapiens) (UniProt P21709); test: EPHA1 DiscoveRx kinase panel; conditions: Compound concentration 1.0 uM
[9] = molecular target: Interferon-induced, double-stranded RNA-activated protein kinase (Homo sapiens) (UniProt P19525); test: PRKR DiscoveRx kinase panel; conditions: Compound concentration 1.0 uM
[10] = molecular target: Serine/threonine-protein kinase Chk2 (Homo sapiens) (UniProt O96017); test: CHEK2 DiscoveRx kinase panel; conditions: Compound concentration 1.0 uM
[11] = molecular target: 1-phosphatidylinositol 3-phosphate 5-kinase (Homo sapiens) (UniProt Q9Y2I7); test: PIKFYVE DiscoveRx kinase panel; conditions: Compound concentration 1.0 uM
[12] = molecular target: Tyrosine-protein kinase ABL2 (Homo sapiens) (UniProt P42684); test: ABL2 DiscoveRx kinase panel; conditions: Compound concentration 1.0 uM
[13] = molecular target: Tyrosine-protein kinase Fgr (Homo sapiens) (UniProt P09769); test: FGR DiscoveRx kinase panel; conditions: Compound concentration 1.0 uM
[14] = molecular target: Serine/threonine-protein kinase D2 (Homo sapiens) (UniProt Q9BZL6); test: PRKD2 DiscoveRx kinase panel; conditions: Compound concentration 1.0 uM
[15] = molecular target: Misshapen-like kinase 1 (Homo sapiens) (UniProt Q8N4C8); test: MINK DiscoveRx kinase panel; conditions: Compound concentration 1.0 uM
[16] = molecular target: Ribosomal protein S6 kinase alpha-2 (Homo sapiens) (UniProt Q15349); test: RSK3(Kin.Dom.2-C-terminal) DiscoveRx kinase panel; conditions: Compound concentration 1.0 uM
[17] = molecular target: Serine/threonine-protein kinase WNK2 (Homo sapiens) (UniProt Q9Y3S1); test: WNK2 DiscoveRx kinase panel; conditions: Compound concentration 1.0 uM
[18] = molecular target: Casein kinase I isoform delta (Homo sapiens) (UniProt P48730); test: CSNK1D DiscoveRx kinase panel; conditions: Compound concentration 1.0 uM
[19] = molecular target: RAF proto-oncogene serine/threonine-protein kinase (Homo sapiens) (UniProt P04049); test: RAF1 DiscoveRx kinase panel; conditions: Compound concentration 1.0 uM
[20] = molecular target: 3-phosphoinositide-dependent protein kinase 1 (Homo sapiens) (UniProt O15530); test: PDPK1 DiscoveRx kinase panel; conditions: Compound concentration 1.0 uM
[21] = molecular target: Glutamate NMDA receptor (Rattus norvegicus) (UniProt P35439+Q00959+Q00960+Q00961+Q62645+Q8VHN2+Q9R1M7); conditions: Compound concentration 10.0 uM
[22] = molecular target: Serine/threonine-protein kinase TAO1 (Homo sapiens) (UniProt Q7L7X3); test: TAOK1 DiscoveRx kinase panel; conditions: Compound concentration 1.0 uM
[23] = molecular target: Serine/threonine-protein kinase Chk1 (Homo sapiens) (UniProt O14757); test: CHEK1 DiscoveRx kinase panel; conditions: Compound concentration 1.0 uM
[24] = molecular target: SRSF protein kinase 2 (Homo sapiens) (UniProt P78362); test: SRPK2 DiscoveRx kinase panel; conditions: Compound concentration 1.0 uM
[25] = molecular target: Dual specificity testis-specific protein kinase 1 (Homo sapiens) (UniProt Q15569); test: TESK1 DiscoveRx kinase panel; conditions: Compound concentration 1.0 uM
[26] = molecular target: Cyclin-dependent kinase-like 2 (Homo sapiens) (UniProt Q92772); test: CDKL2 DiscoveRx kinase panel; conditions: Compound concentration 1.0 uM
[27] = molecular target: Dual specificity protein kinase TTK (Homo sapiens) (UniProt P33981); test: TTK DiscoveRx kinase panel; conditions: Compound concentration 1.0 uM
[28] = molecular target: Mitogen-activated protein kinase kinase kinase 4 (Homo sapiens) (UniProt Q9Y6R4); test: MAP3K4 DiscoveRx kinase panel; conditions: Compound concentration 1.0 uM
[29] = molecular target: Serine/threonine-protein kinase N2 (Homo sapiens) (UniProt Q16513); test: PKN2 DiscoveRx kinase panel; conditions: Compound concentration 1.0 uM
[30] = molecular target: Serine/threonine-protein kinase tousled-like 1 (Homo sapiens) (UniProt Q9UKI8); test: TLK1 DiscoveRx kinase panel; conditions: Compound concentration 1.0 uM
[31] = molecular target: Hepatocyte growth factor receptor (Homo sapiens) (UniProt P08581); test: MET DiscoveRx kinase panel; conditions: Compound concentration 1.0 uM
[32] = molecular target: Serine/threonine-protein kinase PAK 2 (Homo sapiens) (UniProt Q13177); test: PAK2 DiscoveRx kinase panel; conditions: Compound concentration 1.0 uM
[33] = molecular target: Protein kinase C iota type (Homo sapiens) (UniProt P41743); test: PRKCI DiscoveRx kinase panel; conditions: Compound concentration 1.0 uM
[34] = molecular target: Mu-type opioid receptor (Homo sapiens) (UniProt P35372); conditions: Compound concentration 10.0 uM
[35] = molecular target: Ribosomal protein S6 kinase alpha-2 (Homo sapiens) (UniProt Q15349); test: RSK3(Kin.Dom.1-N-terminal) DiscoveRx kinase panel; conditions: Compound concentration 1.0 uM
[36] = molecular target: Dual specificity protein kinase CLK2 (Homo sapiens) (UniProt P49760); test: CLK2 DiscoveRx kinase panel; conditions: Compound concentration 1.0 uM
[37] = molecular target: Macrophage-stimulating protein receptor (Homo sapiens) (UniProt Q04912); test: MST1R DiscoveRx kinase panel; conditions: Compound concentration 1.0 uM
[38] = molecular target: Mitogen-activated protein kinase kinase kinase 20 (Homo sapiens) (UniProt Q9NYL2); test: ZAK DiscoveRx kinase panel; conditions: Compound concentration 1.0 uM
[39] = molecular target: Calcium/calmodulin-dependent protein kinase type II subunit gamma (Homo sapiens) (UniProt Q13555); test: CAMK2G DiscoveRx kinase panel; conditions: Compound concentration 1.0 uM
[40] = molecular target: Tyrosine-protein kinase ZAP-70 (Homo sapiens) (UniProt P43403); test: ZAP70 DiscoveRx kinase panel; conditions: Compound concentration 1.0 uM
[41] = molecular target: Protein-tyrosine kinase 2-beta (Homo sapiens) (UniProt Q14289); test: PYK2 DiscoveRx kinase panel; conditions: Compound concentration 1.0 uM
[42] = molecular target: Focal adhesion kinase 1 (Homo sapiens) (UniProt Q05397); test: FAK DiscoveRx kinase panel; conditions: Compound concentration 1.0 uM
[43] = molecular target: Inhibitor of nuclear factor kappa-B kinase subunit alpha (Homo sapiens) (UniProt O15111); test: IKK-alpha DiscoveRx kinase panel; conditions: Compound concentration 1.0 uM
[44] = molecular target: Beta-3 adrenergic receptor (Homo sapiens) (UniProt P13945); conditions: Compound concentration 10.0 uM
[45] = molecular target: Casein kinase I isoform gamma-1 (Homo sapiens) (UniProt Q9HCP0); test: CSNK1G1 DiscoveRx kinase panel; conditions: Compound concentration 1.0 uM
[46] = molecular target: Cyclin-dependent kinase 11B (Homo sapiens) (UniProt P21127); test: CDC2L1 DiscoveRx kinase panel; conditions: Compound concentration 1.0 uM
Bacteria = test: Inhibition of Beta-Lactamase at 10 µM in the Eurofins-Panlabs enzyme assay (Eurofins_assay_126000); assay type: protein-complex assay; set-up: substrate with concentration; conditions: Compound concentration 10.0 uM
[47] = molecular target: Ribosomal protein S6 kinase alpha-6 (Homo sapiens) (UniProt Q9UK32); test: RSK4(Kin.Dom.2-C-terminal) DiscoveRx kinase panel; conditions: Compound concentration 1.0 uM
[48] = molecular target: Mitogen-activated protein kinase kinase kinase kinase 4 (Homo sapiens) (UniProt O95819); test: MAP4K4 DiscoveRx kinase panel; conditions: Compound concentration 1.0 uM
Rattus norvegicus = species on record: Rattus norvegicus; test: Inhibition of Glutamate, NMDA, Phencyclidine at 10 µM in the Eurofins-Panlabs radioligand binding assay (Eurofins_assay_233000); assay type: protein-complex assay; conditions: Compound concentration 10.0 uM

Sequence of Ribosomal protein S6 kinase alpha-2 (Homo sapiens) (Q15349 whole entry): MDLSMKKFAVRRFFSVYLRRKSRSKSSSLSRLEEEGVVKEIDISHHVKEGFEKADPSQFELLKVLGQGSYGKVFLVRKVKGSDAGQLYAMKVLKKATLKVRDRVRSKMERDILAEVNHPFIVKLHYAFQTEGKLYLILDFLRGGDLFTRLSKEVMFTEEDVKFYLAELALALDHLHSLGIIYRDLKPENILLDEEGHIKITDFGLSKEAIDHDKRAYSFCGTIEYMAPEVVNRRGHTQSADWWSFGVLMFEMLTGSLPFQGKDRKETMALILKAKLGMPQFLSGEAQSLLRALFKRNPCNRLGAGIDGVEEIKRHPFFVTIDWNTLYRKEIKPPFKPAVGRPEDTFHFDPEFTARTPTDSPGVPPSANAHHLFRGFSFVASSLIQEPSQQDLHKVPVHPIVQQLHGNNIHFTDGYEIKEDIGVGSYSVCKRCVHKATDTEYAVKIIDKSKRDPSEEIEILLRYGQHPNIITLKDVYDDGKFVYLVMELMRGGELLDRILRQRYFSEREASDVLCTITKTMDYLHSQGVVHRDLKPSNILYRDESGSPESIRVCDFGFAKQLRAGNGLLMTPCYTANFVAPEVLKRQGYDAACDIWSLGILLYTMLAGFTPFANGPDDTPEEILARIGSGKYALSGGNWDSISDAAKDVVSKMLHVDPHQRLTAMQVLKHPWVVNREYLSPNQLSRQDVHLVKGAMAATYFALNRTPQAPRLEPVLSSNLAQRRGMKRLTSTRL
Sequence of Alpha-2C adrenergic receptor (P18825 whole entry): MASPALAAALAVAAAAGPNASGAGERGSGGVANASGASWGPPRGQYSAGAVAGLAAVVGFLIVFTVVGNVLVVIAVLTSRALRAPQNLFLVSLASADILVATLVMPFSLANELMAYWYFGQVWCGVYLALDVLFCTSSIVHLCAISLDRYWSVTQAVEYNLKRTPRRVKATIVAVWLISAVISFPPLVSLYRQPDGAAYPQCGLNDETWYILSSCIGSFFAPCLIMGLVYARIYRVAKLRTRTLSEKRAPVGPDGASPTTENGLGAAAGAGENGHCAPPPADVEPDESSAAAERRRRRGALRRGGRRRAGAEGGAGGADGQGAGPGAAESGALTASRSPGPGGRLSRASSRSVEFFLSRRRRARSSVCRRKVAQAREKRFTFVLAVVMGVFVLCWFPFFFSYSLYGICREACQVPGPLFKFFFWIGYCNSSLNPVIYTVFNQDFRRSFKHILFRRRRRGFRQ
Sequence of RAF proto-oncogene serine/threonine-protein kinase (Homo sapiens) (P04049 whole entry): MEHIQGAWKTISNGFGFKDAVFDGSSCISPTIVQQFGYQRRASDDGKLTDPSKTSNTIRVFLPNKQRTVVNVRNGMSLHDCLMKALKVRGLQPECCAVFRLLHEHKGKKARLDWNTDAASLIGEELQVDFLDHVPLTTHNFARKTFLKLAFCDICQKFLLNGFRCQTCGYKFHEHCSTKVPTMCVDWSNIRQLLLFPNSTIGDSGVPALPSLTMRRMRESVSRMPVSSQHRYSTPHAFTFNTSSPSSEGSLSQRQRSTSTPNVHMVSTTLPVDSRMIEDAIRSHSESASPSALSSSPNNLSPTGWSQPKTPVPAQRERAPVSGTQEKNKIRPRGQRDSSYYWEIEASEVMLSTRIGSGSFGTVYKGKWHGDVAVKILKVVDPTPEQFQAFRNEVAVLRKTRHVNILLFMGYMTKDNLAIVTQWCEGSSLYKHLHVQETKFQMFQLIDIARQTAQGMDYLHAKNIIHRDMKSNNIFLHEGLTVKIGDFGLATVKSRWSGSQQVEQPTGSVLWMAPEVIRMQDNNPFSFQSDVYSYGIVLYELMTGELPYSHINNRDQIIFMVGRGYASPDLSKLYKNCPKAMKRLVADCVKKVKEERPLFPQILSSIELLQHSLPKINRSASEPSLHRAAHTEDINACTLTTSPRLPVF
Sequence of Beta-3 adrenergic receptor (Homo sapiens) (P13945 whole entry, looked up, canonical isoform): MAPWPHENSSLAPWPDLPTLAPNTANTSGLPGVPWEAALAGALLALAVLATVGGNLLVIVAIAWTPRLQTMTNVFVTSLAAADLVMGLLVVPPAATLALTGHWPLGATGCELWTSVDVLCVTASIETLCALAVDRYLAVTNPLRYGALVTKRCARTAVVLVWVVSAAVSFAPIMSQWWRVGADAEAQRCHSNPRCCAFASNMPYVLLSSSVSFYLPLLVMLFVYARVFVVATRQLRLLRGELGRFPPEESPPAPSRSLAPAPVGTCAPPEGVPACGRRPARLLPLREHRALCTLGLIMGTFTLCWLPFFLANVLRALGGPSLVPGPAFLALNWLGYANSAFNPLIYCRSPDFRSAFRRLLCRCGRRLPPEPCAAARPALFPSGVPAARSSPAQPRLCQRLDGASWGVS
Sequence of Serine/threonine-protein kinase D2 (Homo sapiens) (Q9BZL6 whole entry): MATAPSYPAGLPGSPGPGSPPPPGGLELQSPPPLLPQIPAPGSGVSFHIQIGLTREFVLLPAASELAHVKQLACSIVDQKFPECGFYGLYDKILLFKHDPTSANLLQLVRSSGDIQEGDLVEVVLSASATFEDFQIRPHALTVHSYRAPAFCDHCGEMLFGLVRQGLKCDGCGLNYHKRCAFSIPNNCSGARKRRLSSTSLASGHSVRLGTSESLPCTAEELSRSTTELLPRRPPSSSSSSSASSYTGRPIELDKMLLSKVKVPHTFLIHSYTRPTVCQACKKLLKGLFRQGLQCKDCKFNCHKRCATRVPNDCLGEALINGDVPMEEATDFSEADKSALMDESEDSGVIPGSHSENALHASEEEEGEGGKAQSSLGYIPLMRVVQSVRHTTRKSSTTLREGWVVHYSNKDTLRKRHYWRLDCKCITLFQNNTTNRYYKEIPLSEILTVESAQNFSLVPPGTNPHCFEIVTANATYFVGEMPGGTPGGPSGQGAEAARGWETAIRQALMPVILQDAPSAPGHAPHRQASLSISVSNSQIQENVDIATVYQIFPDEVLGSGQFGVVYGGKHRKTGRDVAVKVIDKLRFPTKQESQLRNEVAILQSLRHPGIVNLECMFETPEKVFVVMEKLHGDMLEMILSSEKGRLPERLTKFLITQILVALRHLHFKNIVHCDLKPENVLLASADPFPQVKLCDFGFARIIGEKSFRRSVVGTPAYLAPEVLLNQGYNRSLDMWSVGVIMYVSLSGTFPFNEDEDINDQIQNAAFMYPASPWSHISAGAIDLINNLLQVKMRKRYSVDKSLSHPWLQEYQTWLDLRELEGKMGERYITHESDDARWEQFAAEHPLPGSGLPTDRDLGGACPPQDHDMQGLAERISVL
Sequence of 3-phosphoinositide-dependent protein kinase 1 (Homo sapiens) (O15530 whole entry): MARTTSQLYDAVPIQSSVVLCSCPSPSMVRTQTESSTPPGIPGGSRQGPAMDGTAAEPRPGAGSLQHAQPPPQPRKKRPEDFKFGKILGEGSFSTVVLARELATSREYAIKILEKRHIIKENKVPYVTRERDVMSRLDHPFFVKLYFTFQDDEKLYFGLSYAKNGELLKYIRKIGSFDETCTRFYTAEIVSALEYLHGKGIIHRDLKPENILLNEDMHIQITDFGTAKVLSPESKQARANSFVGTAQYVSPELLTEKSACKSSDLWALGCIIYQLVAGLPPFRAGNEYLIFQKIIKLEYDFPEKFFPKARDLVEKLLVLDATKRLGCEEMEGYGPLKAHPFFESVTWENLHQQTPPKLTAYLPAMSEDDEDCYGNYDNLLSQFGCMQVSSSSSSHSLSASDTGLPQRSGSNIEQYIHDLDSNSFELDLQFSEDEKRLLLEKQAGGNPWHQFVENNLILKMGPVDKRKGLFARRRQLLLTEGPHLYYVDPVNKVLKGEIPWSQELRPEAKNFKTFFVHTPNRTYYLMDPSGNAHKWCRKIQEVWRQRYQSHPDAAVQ
Sequence of Hepatocyte growth factor receptor (Homo sapiens) (P08581 whole entry): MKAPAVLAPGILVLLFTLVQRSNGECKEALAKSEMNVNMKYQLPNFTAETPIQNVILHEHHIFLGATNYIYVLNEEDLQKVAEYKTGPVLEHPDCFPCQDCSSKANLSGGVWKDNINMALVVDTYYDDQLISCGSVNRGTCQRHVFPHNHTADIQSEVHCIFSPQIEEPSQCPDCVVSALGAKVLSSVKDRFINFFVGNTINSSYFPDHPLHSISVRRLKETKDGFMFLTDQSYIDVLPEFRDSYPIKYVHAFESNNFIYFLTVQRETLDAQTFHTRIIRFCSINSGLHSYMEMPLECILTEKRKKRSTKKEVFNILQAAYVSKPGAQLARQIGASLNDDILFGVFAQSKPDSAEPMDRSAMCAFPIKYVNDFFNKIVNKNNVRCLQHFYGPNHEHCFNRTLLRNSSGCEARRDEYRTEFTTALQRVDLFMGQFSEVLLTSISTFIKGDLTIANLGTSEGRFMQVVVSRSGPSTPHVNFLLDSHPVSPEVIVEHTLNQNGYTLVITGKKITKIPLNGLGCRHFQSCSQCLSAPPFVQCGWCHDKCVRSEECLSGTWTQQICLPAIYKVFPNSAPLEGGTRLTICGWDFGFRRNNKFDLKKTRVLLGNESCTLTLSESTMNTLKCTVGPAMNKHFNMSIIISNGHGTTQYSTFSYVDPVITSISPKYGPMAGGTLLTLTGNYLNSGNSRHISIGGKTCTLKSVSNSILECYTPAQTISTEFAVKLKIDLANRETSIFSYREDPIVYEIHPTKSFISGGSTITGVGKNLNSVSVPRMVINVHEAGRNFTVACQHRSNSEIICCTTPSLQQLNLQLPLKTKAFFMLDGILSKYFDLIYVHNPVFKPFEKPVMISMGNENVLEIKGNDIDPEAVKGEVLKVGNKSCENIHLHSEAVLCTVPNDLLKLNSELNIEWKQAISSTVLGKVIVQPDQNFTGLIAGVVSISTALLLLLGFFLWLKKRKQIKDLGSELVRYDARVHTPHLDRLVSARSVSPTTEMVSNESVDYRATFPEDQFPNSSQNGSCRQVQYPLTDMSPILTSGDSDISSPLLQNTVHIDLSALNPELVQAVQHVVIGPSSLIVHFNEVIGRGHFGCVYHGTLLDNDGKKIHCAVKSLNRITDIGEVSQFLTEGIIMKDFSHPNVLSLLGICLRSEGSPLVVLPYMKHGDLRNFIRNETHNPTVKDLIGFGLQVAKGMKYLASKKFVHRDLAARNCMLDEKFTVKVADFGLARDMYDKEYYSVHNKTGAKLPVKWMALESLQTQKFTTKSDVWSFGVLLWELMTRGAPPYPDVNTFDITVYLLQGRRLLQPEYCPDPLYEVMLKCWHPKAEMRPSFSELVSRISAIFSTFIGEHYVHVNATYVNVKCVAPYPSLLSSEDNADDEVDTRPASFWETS

Compound: COc1cnccc1Nc1nc(-c2nn(Cc3c(F)cc(OCCO)cc3F)c3ccccc23)ncc1OC
- residual activity [1]: 100%
- residual activity [2]: 70%
- Ki [3]: > 10 µM
- pKi [3]: < 5
- residual activity [4]: 81%
- residual activity [5]: 100%
- residual activity [6]: 97%
- inhibition [7]: 4%
- residual activity [8]: 65%
- residual activity [9]: 88%
- residual activity [10]: 100%
- residual activity [11]: 88%
- residual activity [12]: 100%
- residual activity [13]: 92%
- residual activity [14]: 100%
- residual activity [15]: 76%
- residual activity [16]: 100%
- residual activity [17]: 91%
- residual activity [18]: 68%
- residual activity [19]: 71%
- residual activity [20]: 100%
- inhibition [21]: 4%
- residual activity [22]: 100%
- residual activity [23]: 93%
- residual activity [24]: 77%
- residual activity [25]: 57%
- residual activity [26]: 90%
- residual activity [27]: 62%
- residual activity [28]: 80%
- residual activity [29]: 97%
- residual activity [30]: 85%
- residual activity [31]: 80%
- residual activity [32]: 100%
- residual activity [33]: 87%
- inhibition [34]: -4.25%
- residual activity [35]: 80%
- residual activity [36]: 100%
- residual activity [37]: 80%
- residual activity [38]: 42%
- residual activity [39]: 100%
- residual activity [40]: 100%
- residual activity [41]: 95%
- residual activity [42]: 88%
- residual activity [43]: 100%
- inhibition [44]: 4.26%
- residual activity [45]: 74%
- residual activity [46]: 91%
- inhibition (Bacteria): 21%
- residual activity [47]: 100%
- residual activity [48]: 62%
- inhibition (Rattus norvegicus): 2%
